From US10898577B2, “Conjugate of ginsenoside compound K and glycol chitosan and an anti-tumor use thereof” (priority 2015, dated 2021)

System: HT-29 (human colon cancer) cell line
Procedure: To observe the anticancer activity of the GC-CK conjugates, the cytotoxicity of pure GC, CK, and GC-CK conjugates were confirmed in anticancer cells by MTT assay.
Specifically, the HT-29 (human colon cancer) cell line was purchased from the Korean Cell Line Bank (Seoul, Korea) and cultured in RPMI 1640 medium (Welgene, Inc.) containing 1% (w/v) penicillin-streptomycin (Welgene, Inc.) and 10% (v/v) FBS (Welgene, Inc.) in 5% CO2 and 95% humidity at 37° C. The cells were inoculated at a density of 2×10^4 cells/well in 96-well plates (SPL Life Sciences, Korea). After growing for 24 h, the culture medium was replaced with the culture medium containing 100 μL, of various concentrations of GC, standard GC, and GC-CK and cultured for 24 h at 37° C. Next, 10 μL of 3-(4, 5-dimethylthiazol-2-yl)-2, 5-diphenyl-tertazolium bromide) (MTT) was added and the plates were cultured for 3 hours at 37° C. The culture medium was then removed and blue formazan crystals were dissolved with 100 μL of DMSO. The optical density was measured at 570 nm using a Synergy HT multidetection microplate reader (Molecular Devices, BioTek Instruments, Winooski, Vt., USA).

Glycol chitosan [GC]
cytotoxicity in HT29 cells: did not exhibit any cytotoxicity
